Measured values from patent US20050221411A1, “Interaction of NMDA receptor with the protein tyrosine phosphatase step in psychotic disorders” (AGY Therapeutics, Inc., priority 2003, published 2005).
Entries after “also recorded” stand apart in the source; their conditions may differ.

Columns and labels:
[1] = test system: NMDA receptors (NR1, NR2A, NR2B); assay: Surface expression of NMDA receptor subunits in neurons (biotinylation, Western blot); assay type: cell-based
Excerpt: (§1) Interfering RNA molecules were introduced into neurons by AMAXA nucleofection. To specifically knockdown STEP the oligo used had the sequence 5′-[…]-3′, a control siRNA that is predicted not to knock down levels of any gene products (sequence 5′-[…]-3′ was also used (Dharmacon, Lafayette, Colo.). Interfering RNA molecules were introduced into neurons using the AMAXA nucleofection technique (AMAXA, Gaithersburg, Md.) using the manufacturers protocol. Neurons were allowed to grow in culture for 3-4 days prior to experimental procedures.
(§2) Neurons were washed with ice cold PBS. Sulfo-NHS-LC-Biotin (Pierce Biotechnology, Rockford, Ill.) was dissolved at 1.5 mg/ml in ice cold PBS and incubated with the cells for 1 hour at […]. Excess biotin was washed off the cells with ice cold PBS and cells lysed and harvested as above. […] of protein lysate was incubated with 100 μl of neutravadin agarose slurry (Pierce Biotechnology) overnight at […]. The complexes were washed thoroughly and proteins eluted from the beads by resuspension in SDS loading buffer and boiling for 10 mins. Proteins were loaded on 8% Tris-gicine gels and separated by SDS-PAGE. Western blotting was performed by standard means using the indicated antibodies.

[2] = test system: GABAA receptor b subunit; assay: Surface expression of GABAA receptor b subunit in neurons (biotinylation, Western blot); assay type: cell-based; conditions: versus RNAi-Scrambled
Excerpt: as §1, §2

[3] = test system: GluR1 subunit of AMPA receptors; assay: Surface expression of AMPA receptor GluR1 subunit in neurons (biotinylation, Western blot); assay type: cell-based; conditions: versus RNAi-Scrambled
Excerpt: as §1, §2

[4] = test system: STEP61; assay: Knockdown of STEP protein by RNAi in cultured cortical neurons (Western blot); assay type: cell-based, rat
Method: Single stranded interfering RNA molecules (RNAi) were designed to be complementary to the sequence of STEP by standard means. The sequence used was 5′ AAACAUGCGAACAGUAUCAGU 3′. A standard scrambled RNA molecule of sequence 5′-CAG TCG CGT TTG CGA CTG G-3′ was used as a control. Dissociated cortical neurons were prepared from E18 rat embryos by standard protocols. The dissociated neurons were mixed with 90 ul of rat Nucleofector solution to give a final concentration of 4.8×10^6 cells/90 ul. The cells were mixed with 20 ug of RNAi and transferred to an electroporation cuvette. Using an AMAXA Nucleofector cells were electroporated using standard settings. Cells were transferred from the electroporation cuvette to poly-D-lysine coated 96 well plates for calcium flux assays or 6 well plates for Western blotting procedures and grown in standard neuronal media at 37° C. with 5% CO2 for 4 days.
Knockdown of endogenous STEP protein levels was visualized by Western blotting. Four days after electroporation cells were harvested and lysed with lysis buffer (150 mM NaCl, 50 mM Tris pH 7.6, 1% triton, in the presence of a protease inhibitor cocktail and 1 mM sodium orthovanadate) on ice. […] Levels of STEP protein were determined by Western blotting using anti-STEP antibodies (FIG. 6).

[5] = test system: NMDA receptors; assay: NMDA mediated calcium influx in cultured cortical neurons after RNAi (FLEXstation); assay type: cell-based, rat; conditions: 1 μM NMDA, four days after transfection, versus scrambled RNA molecule
[6] = test system: EGF receptors; assay: Surface expression of EGF receptors in neurons (biotinylation, Western blot); assay type: cell-based; conditions: versus RNAi-Scrambled
Excerpt: as §1, §2

[7] = test system: NMDA receptor / ERK phosphorylation; assay: NMDAR mediated ERK phosphorylation in cultured cortical neurons (Western blot); assay type: cell-based
Method: […] SDS-PAGE was performed and western blotting used to detect ERK phosphorylation levels.
ERK phosphorylation in cultured cortical neurons (10-13 division) can be elicited by activation of NMDARs.

## 5′ AAACAUGCGAACAGUAUCAGU 3′ (guide AAACAUGCGAACAGUAUCAGU; siRNA; RNA, backbone and methylation of C not given here; single-stranded interfering RNA) [RNAi-STEP]
[1]; RNAi-STEP or RNAi-Scrambled
  total levels of each subunit: the same
[1]; versus RNAi-Scrambled
  levels of surface NR1: increased
  levels of surface NR2A: increased
  levels of surface NR2B: increased
[2]
  surface levels of the GABAA receptor b subunit: unaffected
[3]
  surface levels of the GluR1 subunit of AMPA receptors: unaffected
[4]; cultured cortical neurons, four days after transfection, versus scrambled RNA molecule
  levels of STEP61 protein: lower levels of STEP61 protein
[4]; neurons, AMAXA nucleofection, relative to RNAi-Scrambled
  STEP levels in the total protein lysate: knocked down
[5]
  Ca influx elicited by application of NMDA: increase in NMDA receptor mediated Ca influx
[5]; listed as inhibitory RNA to STEP
  Ca influx elicited by application of NMDA: larger NMDA response
[6]
  surface levels of EGF receptors: unaffected

## N[C@H](CCCP(=O)(O)O)C(=O)O [D-APV, D-2-amino-5-phosphonopentanoic acid]
[7]; D-APV 200 μM, stimulation with 100 μM NMDA for 5 minutes
  NMDA stimulated ERK phosphorylation: blocked; also recorded: inhibits

## CN[C@H](CC(=O)O)C(=O)O [NMDA, N-methyl-D-aspartate]
[7]; 100 μM NMDA for 5 minutes, cultured cortical neurons (10-13 division)
  ERK phosphorylation levels: significant ERK phosphorylation; also recorded: significantly increased
